Some test systems named below: SK-OV-3; ACHN; SF-539; HL-60; U-251; SNB-75; NCI-H23; HCT-116; NCI-H522; SK-MEL-28; A549; RXF 393; NCI/ADR-RES; BT-549; OVCAR-8; TK-10; NCI-H226; UACC-257; RPMI-8226; SR.
Holding throughout (test): DTP human tumour cell line panel, 48 h

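Test compounds were applied to cells in 96-well plates for 48 hours at 5 doses. GI50: concentration for 50% inhibition of growth.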 Activity calls are given as the source filed them. Rule as the data show it: active = GI50 up to about 1.1 µM and inactive = higher.

Broadly, the GI50 is the concentration at which growth is held to half of that of the control. For the compound `CCC(=O)OC1CCn2c1nc1c2C(=O)C(C)=C(N2CC2)C1=O` (stereo unspecified), the GI50 in the assay with SK-OV-3 is 0.103 µM (active); with ACHN, 0.0895 µM (active); with SF-539, 0.143 µM (active); in the assay with HL-60 it was 0.35 µM (active); in the assay on U-251 it was 0.0371 µM (active); in the assay on SNB-75, 0.0301 µM (active). Further, the concentration for 50% growth inhibition (GI50) in the assay on NCI-H23 was < 0.0423 µM (active); in the assay with HCT-116, 0.0935 µM (active); in the assay with NCI-H522 it was 0.0361 µM (active); with SK-MEL-28, 0.0791 µM (active); in the assay with A549, 0.115 µM (active); in the assay on RXF 393, 0.0565 µM (active). The GI50 in the assay with NCI/ADR-RES was 0.048 µM (active); in the assay on BT-549, 0.0546 µM (active); with OVCAR-8 it was 0.0678 µM (active); in the assay with TK-10, 0.0383 µM (active); in the assay with NCI-H226, 0.111 µM (active); with UACC-257, 0.0711 µM (active).
As to `Nc1ccn(C2CCC(COP(=O)(O)OCC(O)COP(=O)(O)OCC3OC(n4cc(F)c(=O)[nH]c4=O)CC3O)O2)c(=O)n1` (stereo unspecified), the GI50 in the assay with SK-OV-3 was 59.2 µM (inactive); with ACHN, < 0.0106 µM (active); in the assay with SF-539, 0.0216 µM (active); in the assay with HL-60 it was 0.0716 µM (active); in the assay with U-251 it was 1.04 µM (active); in the assay with SNB-75 it was 3.54 µM (inactive). In addition, the GI50 was 0.139 µM (active) in the assay with NCI-H23; 0.581 µM (active) with HCT-116; 0.628 µM (active) in the assay on NCI-H522; 10.4 µM (inactive) in the assay on RPMI-8226; 26.4 µM (inactive) in the assay with SK-MEL-28; 0.386 µM (active) with A549. In addition, the GI50 in the assay on RXF 393 is 3.33 µM (inactive); in the assay on NCI/ADR-RES, 0.215 µM (active); in the assay with BT-549, 3.09 µM (inactive); with OVCAR-8, 0.157 µM (active); in the assay with TK-10 it was 5.14 µM (inactive); in the assay with NCI-H226, > 100 µM (inactive). Moreover, the GI50 with UACC-257 is > 100 µM (inactive).
For the compound `O=c1[nH]c(=O)n(C2OC(CO)C(O)C2O)c2nc(-c3ccc(-c4ccccc4)cc3)cnc12` (stereo unspecified), the GI50 in the assay with SK-OV-3, with ACHN, in the assay on SF-539, in the assay on U-251, in the assay with SNB-75 and in the assay with NCI-H23 was > 100 µM (inactive) each time. In addition, the GI50 in the assay with HCT-116, in the assay with NCI-H522, in the assay with RPMI-8226, in the assay on A549, in the assay on RXF 393 and with NCI/ADR-RES was > 100 µM (inactive) each time. For the same compound, the GI50 with BT-549, with OVCAR-8, in the assay on TK-10, in the assay with NCI-H226 and in the assay with UACC-257 was > 100 µM (inactive) throughout.
In the case of `N#CCCN(CCC#N)c1ccc(/C=N\c2ccc(F)cc2)cc1`, the GI50 in the assay on SK-OV-3 is > 100 µM (inactive); with ACHN, 3.16 µM (inactive); in the assay on SF-539 it was 15.2 µM (inactive); in the assay on HL-60, 6.46 µM (inactive); in the assay with U-251, > 100 µM (inactive); with SNB-75, 73.6 µM (inactive). The GI50 with NCI-H23 was > 100 µM (inactive); in the assay with HCT-116, 6.97 µM (inactive); in the assay with NCI-H522 it was > 100 µM (inactive); in the assay with SR it was 58.9 µM (inactive); in the assay with RPMI-8226, > 39.8 µM (inactive); in the assay with SK-MEL-28 it was > 48.5 µM (inactive). The GI50 in the assay with A549 is 43.1 µM (inactive); in the assay with RXF 393 it was > 57 µM (inactive); in the assay on BT-549, > 100 µM (inactive); in the assay on OVCAR-8 it was > 100 µM (inactive); in the assay on TK-10 it was > 24 µM (inactive); in the assay with NCI-H226 it was > 100 µM (inactive). The GI50 in the assay on UACC-257 is > 100 µM (inactive).
As for `COCN1C(=O)[C@@H]2CCCN2C(=O)c2cc(N)ccc21`, the GI50 with SK-OV-3, with ACHN, in the assay on SF-539, in the assay on U-251, in the assay with SNB-75 and with NCI-H23 was > 100 µM (inactive) each time. Also, the GI50 in the assay with HCT-116, in the assay on NCI-H522, in the assay on SK-MEL-28, in the assay with A549, in the assay on RXF 393 and with NCI/ADR-RES was > 100 µM (inactive) throughout. The GI50 in the assay with BT-549, in the assay on OVCAR-8, in the assay with TK-10 and in the assay with UACC-257 was > 100 µM (inactive) in each case.
With `CCOC(=O)C(NC(=O)c1cccc(Cl)c1)(N1CCN(c2cc3c(cc2F)c(=O)c(C(=O)O)cn3C2CC2)CC1)C(F)(F)F` (stereo unspecified), the GI50 in the assay with SK-OV-3 is 23.4 µM (inactive); in the assay on ACHN it was 15.5 µM (inactive); in the assay on SF-539, 16.7 µM (inactive); in the assay on HL-60, 2.67 µM (inactive); in the assay with U-251, 5.24 µM (inactive); in the assay on SNB-75, 20.2 µM (inactive). Moreover, the GI50 is 15.4 µM (inactive) with NCI-H23; 12.7 µM (inactive) with HCT-116; 6.61 µM (inactive) with SR; 3.94 µM (inactive) in the assay with RPMI-8226; 16.5 µM (inactive) with SK-MEL-28; 15.2 µM (inactive) in the assay on A549. Also, the GI50 is 17 µM (inactive) in the assay with RXF 393, 18.9 µM (inactive) in the assay with BT-549, 17.5 µM (inactive) with OVCAR-8 and 19.5 µM (inactive) with NCI-H226.
Regarding `COc1c(-c2ccc3c(c2)OCO3)oc2cc(O)cc(O)c2c1=O`, the GI50 in the assay with SK-OV-3 was 19.6 µM (inactive); in the assay with ACHN it was 27 µM (inactive); with SF-539, 39.6 µM (inactive); in the assay on HL-60 it was 41.5 µM (inactive); in the assay with U-251, 75.2 µM (inactive); in the assay with SNB-75 it was 13.4 µM (inactive). Also, the GI50 in the assay with NCI-H23 is 63.4 µM (inactive); with HCT-116 it was 62.1 µM (inactive); in the assay with NCI-H522, 19.2 µM (inactive); in the assay with SR, 22.6 µM (inactive); with RPMI-8226, 34 µM (inactive); in the assay with SK-MEL-28, > 100 µM (inactive). Also, the GI50 in the assay on A549 is 47.3 µM (inactive); in the assay on RXF 393, 14.9 µM (inactive); with NCI/ADR-RES it was 46 µM (inactive); in the assay with OVCAR-8 it was 45.4 µM (inactive); in the assay with TK-10, 95.1 µM (inactive); in the assay with NCI-H226 it was > 100 µM (inactive). Moreover, the GI50 with UACC-257 is > 100 µM (inactive).
`CCCCSC1=N/C(=C\c2ccccc2O)C(=O)N1`: the GI50 in the assay on SK-OV-3 was > 100 µM (inactive); in the assay on ACHN, 40.3 µM (inactive); with SF-539 it was 41.5 µM (inactive); in the assay on HL-60 it was 94.6 µM (inactive); with U-251, 43.8 µM (inactive); in the assay on SNB-75, > 100 µM (inactive). For the same compound, the GI50 in the assay with NCI-H23 was 42.7 µM (inactive); in the assay with HCT-116 it was 40.3 µM (inactive); with NCI-H522, 69 µM (inactive); in the assay on RPMI-8226, 75.5 µM (inactive); in the assay on SK-MEL-28, > 100 µM (inactive); in the assay with A549, 20.7 µM (inactive). In addition, the GI50 with RXF 393 is 50.5 µM (inactive); in the assay on NCI/ADR-RES, 66.7 µM (inactive); in the assay with BT-549 it was 49.4 µM (inactive); in the assay on OVCAR-8, > 100 µM (inactive); with TK-10, 76.9 µM (inactive); with NCI-H226 it was > 100 µM (inactive). Moreover, the GI50 in the assay with UACC-257 is 31.2 µM (inactive).
With `COc1nc(N)nc2c1n(C)c[n+]2C`, the GI50 with SK-OV-3, with ACHN, in the assay on SF-539, with HL-60, in the assay on U-251 and with SNB-75 was > 100 µM (inactive) throughout. Moreover, the GI50 in the assay on NCI-H23, in the assay on HCT-116, with NCI-H522, in the assay on RPMI-8226, in the assay on SK-MEL-28 and in the assay with A549 was > 100 µM (inactive) in each case. The GI50 in the assay with RXF 393, in the assay on NCI/ADR-RES, with BT-549, in the assay on OVCAR-8, in the assay with TK-10 and with NCI-H226 was > 100 µM (inactive) in each case. For the same compound, the GI50 in the assay with UACC-257 was > 100 µM (inactive).
As to `O=S(=O)(/N=S(/Nc1ccccc1)C(Cl)Cl)c1ccccc1` (stereo unspecified), the GI50 in the assay on SK-OV-3, in the assay with ACHN, in the assay on SF-539, with HL-60, in the assay with U-251 and in the assay with SNB-75 was > 100 µM (inactive) each time. Moreover, the GI50 in the assay with NCI-H23, with HCT-116, in the assay on RPMI-8226, with SK-MEL-28, in the assay on A549 and with RXF 393 was > 100 µM (inactive) each time. For the same compound, the GI50 with NCI/ADR-RES, in the assay on BT-549, in the assay with OVCAR-8, in the assay on TK-10, with NCI-H226 and with UACC-257 was > 100 µM (inactive) in each case.
Regarding `CCN1C(=O)C(=C/C=C/c2ccc(OC)cc2)C(=O)N(CC)C1=S`, the GI50 was 23.1 µM (inactive) in the assay on SK-OV-3; 17.7 µM (inactive) with ACHN; 19.6 µM (inactive) in the assay with SF-539; 7.5 µM (inactive) in the assay with HL-60; 18.9 µM (inactive) with U-251; > 100 µM (inactive) in the assay on NCI-H23. In addition, the GI50 was 17.8 µM (inactive) in the assay with HCT-116; 33.6 µM (inactive) in the assay on RPMI-8226; > 100 µM (inactive) in the assay with A549; 17.2 µM (inactive) with RXF 393; 13.8 µM (inactive) in the assay on NCI/ADR-RES; 26.7 µM (inactive) in the assay on BT-549. Besides, the GI50 was 21.4 µM (inactive) in the assay on OVCAR-8, 17.5 µM (inactive) in the assay on TK-10, 32.9 µM (inactive) in the assay on NCI-H226 and 16 µM (inactive) in the assay on UACC-257.

The values above are taken from ChEMBL document CHEMBL1201862, “PubChem BioAssay data set” (2004).
